In ChEMBL document CHEMBL5344455, “Discovery and Characterization of Active CBP/EP300 Degraders Targeting the HAT Domain” (ACS Med Chem Lett, 2024):
Calls of active or inactive are those of the source. No cut-off for these calls is given here.

Key:
CREB-binding protein = CREB-binding protein (Homo sapiens, UniProt Q92793); assay: Inhibition of CBP (unknown origin) by radiometric assay
LP-1 [1] = assay: Antiproliferative activity against human LP-1 cells assessed as growth inhibition incubated for 3 days by fluorescence based assay; assay type: functional; conditions: LP-1, 72 h, time 3 day
[2] = target: T1, Protein cereblon/Histone acetyltransferase p300 (Homo sapiens) (UniProt Q09472+Q96SW2); assay: Protac activity at CRBN/EP300 in human LP-1 cells assessed as protein remaining at 5 uM after 16 hrs by Western blotting analysis; assay type: cell-based
T1 sequence (Q09472 2-2414 limits assumed): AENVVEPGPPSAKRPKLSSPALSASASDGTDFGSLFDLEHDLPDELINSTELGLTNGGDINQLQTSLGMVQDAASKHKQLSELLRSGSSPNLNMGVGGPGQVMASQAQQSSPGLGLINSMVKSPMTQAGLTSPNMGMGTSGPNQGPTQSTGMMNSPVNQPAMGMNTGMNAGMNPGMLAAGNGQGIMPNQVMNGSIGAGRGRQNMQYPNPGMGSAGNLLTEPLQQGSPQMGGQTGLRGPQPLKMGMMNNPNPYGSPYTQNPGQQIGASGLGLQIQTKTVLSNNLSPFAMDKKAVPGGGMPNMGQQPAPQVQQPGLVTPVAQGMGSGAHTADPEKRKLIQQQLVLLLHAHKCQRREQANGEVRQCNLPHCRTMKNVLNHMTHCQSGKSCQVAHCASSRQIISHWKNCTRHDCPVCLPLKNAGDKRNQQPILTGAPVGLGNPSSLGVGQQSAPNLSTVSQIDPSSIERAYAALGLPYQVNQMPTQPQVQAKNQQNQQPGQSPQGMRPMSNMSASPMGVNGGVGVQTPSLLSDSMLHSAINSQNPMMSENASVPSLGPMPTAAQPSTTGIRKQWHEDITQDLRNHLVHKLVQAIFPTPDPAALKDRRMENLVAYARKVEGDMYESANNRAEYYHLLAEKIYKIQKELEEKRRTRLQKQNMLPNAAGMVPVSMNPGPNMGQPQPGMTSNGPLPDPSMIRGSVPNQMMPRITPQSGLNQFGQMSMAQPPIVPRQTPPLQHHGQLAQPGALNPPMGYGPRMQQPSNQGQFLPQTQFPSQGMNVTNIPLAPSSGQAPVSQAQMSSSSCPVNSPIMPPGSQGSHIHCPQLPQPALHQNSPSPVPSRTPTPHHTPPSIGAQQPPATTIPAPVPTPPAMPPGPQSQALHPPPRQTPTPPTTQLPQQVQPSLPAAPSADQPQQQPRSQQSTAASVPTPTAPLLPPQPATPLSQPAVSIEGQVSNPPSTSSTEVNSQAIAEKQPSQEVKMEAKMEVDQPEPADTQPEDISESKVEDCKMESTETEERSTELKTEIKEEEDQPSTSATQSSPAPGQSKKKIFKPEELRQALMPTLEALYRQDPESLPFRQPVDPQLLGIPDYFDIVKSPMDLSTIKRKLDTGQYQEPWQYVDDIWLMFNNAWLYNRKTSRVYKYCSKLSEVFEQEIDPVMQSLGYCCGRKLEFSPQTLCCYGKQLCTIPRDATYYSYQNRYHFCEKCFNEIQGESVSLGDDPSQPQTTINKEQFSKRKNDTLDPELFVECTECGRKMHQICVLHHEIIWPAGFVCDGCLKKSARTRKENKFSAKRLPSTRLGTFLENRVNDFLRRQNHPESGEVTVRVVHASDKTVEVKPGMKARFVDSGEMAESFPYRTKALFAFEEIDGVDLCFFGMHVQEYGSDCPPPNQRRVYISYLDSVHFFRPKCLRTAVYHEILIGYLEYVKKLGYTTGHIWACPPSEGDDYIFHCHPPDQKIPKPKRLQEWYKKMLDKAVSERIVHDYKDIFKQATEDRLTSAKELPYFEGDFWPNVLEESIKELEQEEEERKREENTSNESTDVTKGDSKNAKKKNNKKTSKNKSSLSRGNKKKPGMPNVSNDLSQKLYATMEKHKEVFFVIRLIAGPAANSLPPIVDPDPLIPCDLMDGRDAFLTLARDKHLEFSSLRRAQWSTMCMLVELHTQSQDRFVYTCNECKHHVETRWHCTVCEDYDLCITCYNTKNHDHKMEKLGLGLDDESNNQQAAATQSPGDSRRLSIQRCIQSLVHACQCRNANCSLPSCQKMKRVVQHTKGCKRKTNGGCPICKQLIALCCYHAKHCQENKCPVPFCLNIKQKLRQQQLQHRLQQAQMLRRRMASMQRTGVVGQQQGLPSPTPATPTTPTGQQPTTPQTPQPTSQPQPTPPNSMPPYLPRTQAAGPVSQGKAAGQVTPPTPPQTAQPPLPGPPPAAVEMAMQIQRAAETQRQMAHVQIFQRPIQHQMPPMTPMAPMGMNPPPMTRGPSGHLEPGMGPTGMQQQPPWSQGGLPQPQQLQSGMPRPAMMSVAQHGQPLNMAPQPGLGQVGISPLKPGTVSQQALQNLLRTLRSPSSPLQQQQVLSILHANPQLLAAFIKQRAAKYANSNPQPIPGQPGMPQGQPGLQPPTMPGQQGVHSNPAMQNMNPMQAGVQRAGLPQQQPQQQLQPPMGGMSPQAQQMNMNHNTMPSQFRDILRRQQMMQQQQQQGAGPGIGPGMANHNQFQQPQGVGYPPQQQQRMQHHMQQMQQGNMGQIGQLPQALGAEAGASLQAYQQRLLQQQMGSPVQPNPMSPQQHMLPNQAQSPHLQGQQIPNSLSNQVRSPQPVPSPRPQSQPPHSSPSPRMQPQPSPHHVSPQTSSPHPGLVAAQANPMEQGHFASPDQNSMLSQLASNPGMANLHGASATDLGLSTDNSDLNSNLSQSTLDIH
T1 sequence (Q96SW2 whole entry partner): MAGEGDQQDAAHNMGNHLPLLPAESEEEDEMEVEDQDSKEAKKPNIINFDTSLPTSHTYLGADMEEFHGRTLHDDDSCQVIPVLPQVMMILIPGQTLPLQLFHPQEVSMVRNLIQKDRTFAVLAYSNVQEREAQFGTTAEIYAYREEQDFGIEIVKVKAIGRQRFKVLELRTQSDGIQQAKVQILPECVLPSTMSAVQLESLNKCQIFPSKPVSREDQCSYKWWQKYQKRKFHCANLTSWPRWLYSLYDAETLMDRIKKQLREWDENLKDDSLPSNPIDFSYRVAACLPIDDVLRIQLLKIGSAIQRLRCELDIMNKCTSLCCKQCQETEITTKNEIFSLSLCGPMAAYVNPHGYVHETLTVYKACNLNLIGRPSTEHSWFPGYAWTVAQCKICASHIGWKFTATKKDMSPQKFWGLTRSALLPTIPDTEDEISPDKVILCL

[3] = target: T2, Protein cereblon/CREB-binding protein (Homo sapiens, UniProt Q92793+Q96SW2); assay: Protac activity at CRBN/CBP in human LP-1 cells assessed as protein remaining at 5 uM after 16 hrs by Western blotting analysis; assay type: cell-based
[4] = target: von Hippel-Lindau disease tumor suppressor/Histone acetyltransferase p300 (Homo sapiens) (UniProt Q09472+P40337); assay: Protac activity at VHL/EP300 in human LP-1 cells assessed as protein remaining at 5 uM after 16 hrs by Western blotting analysis; assay type: cell-based
[5] = target: von Hippel-Lindau disease tumor suppressor/CREB-binding protein (Homo sapiens) (UniProt Q92793+P40337); assay: Protac activity at VHL/CBP in human LP-1 cells assessed as protein remaining at 5 uM after 16 hrs by Western blotting analysis; assay type: cell-based
LP-1 [6] = assay: Protac activity at IAP/EP300 in human LP-1 cells assessed as protein remaining at 5 uM after 16 hrs by Western blotting analysis; assay type: cell-based
LP-1 [7] = assay: Protac activity at IAP/CBP in human LP-1 cells assessed as protein remaining at 5 uM after 16 hrs by Western blotting analysis; assay type: cell-based
[8] = target: T2, Protein cereblon/CREB-binding protein; assay: Protac activity at CRBN/CBP degradation in human LP-1 cells assessed as induction of ternary complex formation by measuring fluorescent foci at 2 uM after 6 hrs by fluorescence microscopic analysis; assay type: cell-based
SR = assay: Antiproliferative activity against human SR cells; assay type: functional, cell-based
[9] = target: T2, Protein cereblon/CREB-binding protein; assay: Protac activity at CRBN/CBP in human LP-1 cells at 5 uM after 8 to 48 hrs by Western blotting analysis; assay type: cell-based; conditions: time 8-48 hrs
HL-60(TB) = assay: Antiproliferative activity against human HL-60(TB) cells; assay type: functional, cell-based
[10] = target: T2, Protein cereblon/CREB-binding protein; assay: Protac activity at CRBN/CBP in human MM1.S cells at 5 uM after 16 hrs by Western blotting analysis; assay type: cell-based
K562 = assay: Antiproliferative activity against human K562 cells; assay type: functional, cell-based
MOLT-4 = assay: Antiproliferative activity against human MOLT-4 cells; assay type: functional, cell-based
[11] = target: T2, Protein cereblon/CREB-binding protein; assay: Protac activity at CRBN/CBP degradation in human LP-1 cells at 5 uM preincubated with MG-132 for 1 hr followed by compound addition and measured after 16 hrs by Western blotting analysis; assay type: cell-based
[12] = target: T2, Protein cereblon/CREB-binding protein; assay: Protac activity at CRBN/CBP in human LP-1 cells after 16 hrs by Western blotting analysis; assay type: cell-based
CCRF-CEM = assay: Antiproliferative activity against human CCRF-CEM cells; assay type: functional, cell-based
RPMI-8226 = assay: Antiproliferative activity against human RPMI-8226 cells; assay type: functional, cell-based
[13] = target: T2, Protein cereblon/CREB-binding protein; assay: Protac activity at CRBN/CBP degradation in human LP-1 cells at 5 uM preincubated with pomalidomide for 1 hr followed by compound addition and measured after 16 hrs by Western blotting analysis; assay type: cell-based
[14] = target: T2, Protein cereblon/CREB-binding protein; assay: Protac activity at CRBN/CBP degradation in human LP-1 cells at 5 uM preincubated with CPI-1612 for 1 hr followed by compound addition and measured after 16 hrs by Western blotting analysis; assay type: cell-based
[15] = target: T2, Protein cereblon/CREB-binding protein; assay: Protac activity at CRBN/CBP in human LP-1 cells at 5 uM after 16 hrs by Western blotting analysis; assay type: cell-based
[16] = target: T1, Protein cereblon/Histone acetyltransferase p300 (Homo sapiens); assay: Protac activity at CRBN/EP300 in human LP-1 cells at 5 uM after 16 hrs by Western blotting analysis; assay type: cell-based
[17] = target: T1, Protein cereblon/Histone acetyltransferase p300 (Homo sapiens); assay: Protac activity at CRBN/EP300 in human MM1.S cells at 5 uM after 16 hrs by Western blotting analysis; assay type: cell-based

## COCCNC(=O)CCCCn1cc(-c2ccc(NC(=O)C(NCC(C)c3ccc(C#N)cc3)c3ccccc3)nc2)cn1 (configuration not stated)
CREB-binding protein
  IC50: 819 nM

## Nc1cccc2c1C(=O)N(C1CCC(=O)NC1=O)C2=O (configuration not stated) [POMALIDOMIDE]
LP-1 [1]
  GI50: > 10000 nM

## C[C@H](CN[C@@H](C(=O)Nc1ccc(-c2cnn(CCCC(=O)NCCOCCOCCOCCOCCOCCOCCOCCNc3cccc4c3C(=O)N(C3CCC(=O)NC3=O)C4=O)c2)cn1)c1ccccc1)c1ccc(C#N)cc1 (some centres not stated)
[2]
  Activity: Active
[3]
  Activity: Active

## C[C@H](CN[C@@H](C(=O)Nc1ccc(-c2cnn(C)c2)cn1)c1ccccc1)c1ccc(C#N)cc1
CREB-binding protein
  IC50: 116 nM
LP-1 [1]
  GI50: 5 nM

## Cc1ncsc1-c1ccc(CNC(=O)[C@H]2C[C@H](O)CN2C(=O)[C@H](NC(=O)CCOCCOCCOCCNC(=O)CCCn2cc(-c3ccc(NC(=O)[C@H](NC[C@@H](C)c4ccc(C#N)cc4)c4ccccc4)nc3)cn2)C(C)(C)C)cc1
[4]
  Activity: 89%
[5]
  Activity: > 95%
LP-1 [1]
  GI50: 2200 nM

## C[C@H](CN[C@@H](C(=O)Nc1ccc(-c2cnn(CCCC(=O)NCCOCCOCCOCCNc3cccc4c3C(=O)N(C3CCC(=O)NC3=O)C4=O)c2)cn1)c1ccccc1)c1ccc(C#N)cc1 (some centres not stated)
[2]
  Activity: 76%
[3]
  Activity: > 95%
LP-1 [1]
  GI50: 500 nM

## CCOCCNC(=O)CCCn1cc(-c2ccc(NC(=O)C(NCC(C)c3ccc(C#N)cc3)c3ccccc3)nc2)cn1 (configuration not stated)
CREB-binding protein
  IC50: 1010 nM

## C[C@H](CN[C@@H](C(=O)Nc1ccc(-c2cnn(CCCC(=O)NCCCCCCCCNc3cccc4c3C(=O)N(C3CCC(=O)NC3=O)C4=O)c2)cn1)c1ccccc1)c1ccc(C#N)cc1 (some centres not stated)
[2]
  Activity: 79%
[3]
  Activity: 87%
LP-1 [1]
  GI50: 470 nM

## C[C@H](CN[C@@H](C(=O)Nc1ccc(-c2cnn(CCCC(=O)NCCOCCOCCNc3cccc4c3C(=O)N(C3CCC(=O)NC3=O)C4=O)c2)cn1)c1ccccc1)c1ccc(C#N)cc1 (some centres not stated)
[2]
  Activity: 79%
[3]
  Activity: > 95%
LP-1 [1]
  GI50: 330 nM

## CN[C@@H](C)C(=O)N[C@H](C(=O)N1C[C@@H](NC(=O)CCOCCOCCNC(=O)CCCn2cc(-c3ccc(NC(=O)[C@H](NC[C@@H](C)c4ccc(C#N)cc4)c4ccccc4)nc3)cn2)C[C@H]1C(=O)Nc1c(F)cccc1F)C(C)(C)C
LP-1 [6]
  Activity: 93%
LP-1 [1]
  GI50: > 10000 nM
LP-1 [7]
  Activity: 87%

## CCOCCNC(=O)CCn1cc(-c2ccc(NC(=O)C(NCC(C)c3ccc(C#N)cc3)c3ccccc3)nc2)cn1 (configuration not stated)
CREB-binding protein
  IC50: 1870 nM

## Cc1ncsc1-c1ccc(CNC(=O)[C@@H]2C[C@@H](O)CN2C(=O)[C@@H](NC(=O)COCCOCCNC(=O)CCCn2cc(-c3ccc(NC(=O)[C@H](NC[C@@H](C)c4ccc(C#N)cc4)c4ccccc4)nc3)cn2)C(C)(C)C)cc1
[4]
  Activity: > 95%
[5]
  Activity: > 95%
LP-1 [1]
  GI50: 1000 nM

## C[C@H](CN[C@@H](C(=O)Nc1ccc(-c2cnn(CCCC(=O)NCCOCCOCCOCCOCCOCCNc3cccc4c3C(=O)N(C3CCC(=O)NC3=O)C4=O)c2)cn1)c1ccccc1)c1ccc(C#N)cc1 (some centres not stated)
[2]
  Activity: Active
[3]
  Activity: Active

## Cc1ncsc1-c1ccc(CNC(=O)[C@@H]2C[C@@H](O)CN2C(=O)[C@@H](NC(=O)CCCCCCCNC(=O)CCCn2cc(-c3ccc(NC(=O)[C@H](NC[C@@H](C)c4ccc(C#N)cc4)c4ccccc4)nc3)cn2)C(C)(C)C)cc1
[4]
  Activity: > 95%
[5]
  Activity: > 95%
LP-1 [1]
  GI50: 4700 nM

## C[C@H](CN[C@@H](C(=O)Nc1ccc(-c2cnn(CCCC(=O)NCCOCCOCCOCCOCCOCCOCCNc3cccc4c3C(=O)N(C3CCC(=O)N(C)C3=O)C4=O)c2)cn1)c1ccccc1)c1ccc(C#N)cc1 (some centres not stated)
[8]
  Activity: inactive

## CN[C@@H](C)C(=O)N[C@H](C(=O)N1C[C@@H](NC(=O)CCCCCCCNC(=O)CCCn2cc(-c3ccc(NC(=O)[C@H](NC[C@@H](C)c4ccc(C#N)cc4)c4ccccc4)nc3)cn2)C[C@H]1C(=O)Nc1c(F)cccc1F)C(C)(C)C
LP-1 [6]
  Activity: > 95%
LP-1 [1]
  GI50: 2300 nM
LP-1 [7]
  Activity: > 95%

## C[C@H](CN[C@@H](C(=O)Nc1ccc(-c2cnn(CCCC(=O)NCCOCCOCCOCCOCCNc3cccc4c3C(=O)N(C3CCC(=O)NC3=O)C4=O)c2)cn1)c1ccccc1)c1ccc(C#N)cc1 (some centres not stated)
[2]
  Activity: Active
[3]
  Activity: Active

## C[C@H](CN[C@@H](C(=O)Nc1ccc(-c2cnn(CCCC(=O)NCCOCCOCCOCCOCCOCCOCCNc3cccc4c3C(=O)N(C3CCC(=O)NC3=O)C4=O)c2)cn1)c1ccccc1)c1ccc(C#N)cc1 (some centres not stated)
SR
  Activity: Active
[9]
  Activity: Active
[2]
  Activity: Active
HL-60(TB)
  Activity: Active
[10]
  Activity: Active
[8]
  EC50: 1200 nM
[3]
  Activity: Active
K562
  Activity: Active
MOLT-4
  Activity: Active
[11]
  Activity: Active
[12]
  EC50: 1300 nM
CCRF-CEM
  Activity: Active
RPMI-8226
  Activity: Active
[13]
  Activity: Active
[14]
  Activity: Active

## C[C@H](N(Cc1ccc(F)cc1)C(=O)CN1C(=O)O[C@@]2(CCc3cc(NC(=O)CCCCCCCCCCCNc4ccc5c(c4)C(=O)N(C4CCC(=O)NC4=O)C5=O)ccc32)C1=O)C(F)(F)F (some centres not stated)
[15]
  Activity: inactive
[10]
  Activity: inactive
[16]
  Activity: inactive
[17]
  Activity: inactive

## C[C@H](CN[C@@H](C(=O)Nc1ccc(-c2cnn(CCCC(=O)NCCCCCCCCNc3ccc4c(c3)C(=O)N(C3CCC(=O)NC3=O)C4=O)c2)cn1)c1ccccc1)c1ccc(C#N)cc1 (some centres not stated)
[2]
  Activity: 95%
[3]
  Activity: > 95%
LP-1 [1]
  GI50: 260 nM

## CN[C@@H](C)C(=O)N[C@H](C(=O)N1C[C@@H](NC(=O)CCOCCOCCOCCNC(=O)CCCn2cc(-c3ccc(NC(=O)[C@H](NC[C@@H](C)c4ccc(C#N)cc4)c4ccccc4)nc3)cn2)C[C@H]1C(=O)Nc1c(F)cccc1F)C(C)(C)C
LP-1 [6]
  Activity: > 95%
LP-1 [1]
  GI50: 500 nM
LP-1 [7]
  Activity: > 95%
